Patent publication US20240082334A1, “STABILIZED STEVIOL GLYCOSIDE COMPOSITIONS AND USES THEREOF” (CARGILL, INCORPORATED, priority 2017, published 2024)

Experiment: Reb M solubility in D2O observed in NMR sample preparation
Format: physicochemical
Settings: when SCs are not present, compared with SCs present; room temperature
Experimental: A total of four samples were prepared for this study, and they are listed below. Each sample was dissolved fully in water, with or without heat as noted below, flash frozen at −80° C., and then placed on a lyophilizer until dry. The dry powders were subsequently dissolved in D2O at room temperature and analyzed by ^1H NMR and ^13C NMR.

## C=C1C[C@@]23CC[C@H]4[C@@](C)(CCC[C@@]4(C)C(=O)O[C@@H]4O[C@H](CO)[C@@H](O)[C@H](O[C@@H]5O[C@H](CO)[C@@H](O)[C@H](O)[C@H]5O)[C@H]4O[C@@H]4O[C@H](CO)[C@@H](O)[C@H](O)[C@H]4O)[C@@H]2CC[C@]1(O[C@@H]1O[C@H](CO)[C@@H](O)[C@H](O[C@@H]2O[C@H](CO)[C@@H](O)[C@H](O)[C@H]2O)[C@H]1O[C@@H]1O[C@H](CO)[C@@H](O)[C@H](O)[C@H]1O)C3 [Reb M, Rebaudioside M]
  solubility in D2O: much lower
